Assays:
TNF = assay: Pre-screen of anti-TNF activity, cells + LPS (Table 2); format: cell-based
TLR4 [1] = target: T1, TLR4 (Homo sapiens, UniProt O00206); assay: TLR4 ligand induced TNF-α secretion in THP-1 cells (ELISA); format: cell-based; conditions: 1 hr pretreatment, TLR4 ligand 750 ng/ml, 24 hrs
T1 construct: endogenous in cells
Description: (§1) The present invention has checked the effect of various TLR ligands on THP-1 monocytes, PBMCs and their ability to activate and release TNF-α. For this purpose about 9 TLR ligands were used. These ligands were obtained from Apotech Cat; APO-54N-018-K101 and assayed for TNF-α release in culture supernatants. THP-1 (FIG. 1a) and PBMCs (2×10^5 cells/well) (FIG. 1b) were plated in 96-well plate. The cells were pretreated with RSCL-0520 in DMSO 1 hr prior to TLR ligand treatment. Following 1 hr pre-treatment, the cells were treated with TLR ligands [TLR2, TLR5 and TLR6-75 ng/ml each, TLR3-75 μg/ml, TLR4-750 ng/ml, TLR7, TLR8 and TLR9-7.5 μg/ml) for 24 hrs. The culture supernatant were collected after the stipulated time and assayed for TNF-α release using a Duoset Enzyme-Linked ImmunoSorbent Assay (ELISA) detection Kit (R&D systems, MN 55413, USA; Cat: DY-210 E). Simultaneously, supernatants from cells treated with ligands without RSCL-0520 pre-treatment and RSCL-0520 without ligand treatment were collected which served as respective controls.

TLR4 [2] = target: T1, TLR4; assay: TLR4 ligand induced TNF-α secretion in PBMCs (ELISA); format: cell-based; conditions: 1 hr pretreatment, TLR4 ligand 750 ng/ml, 24 hrs
Description: as §1

THP-1 cells = assay: Toxicity to THP-1 cells by MTT assay; format: cell-based, human; conditions: analyzed in tandem with TNF-α assay
Description: The toxicity of RSCL-0520 (FIG. 2b) was also by treating cells with RSCL-0520 by MTT assay. […] The viability of the cells (analyzed in tandem by MTT) was not affected by RSCL-0520 indicating its non-toxic nature.

serum TNF-α [3] = assay: LPS induced TNF-α release in Balb/c mice, pre-treatment; format: in vivo; conditions: serum 1 hr post LPS
Description: (§2) The present invention has studied the ability of RSCL-0520 to exert protection against inflammatory agents in a mice (Balb/c) model. Balb/c (5-6 weeks) mice were injected with LPS (225 μg) intraperitoneally with and without pretreatment of RSCL-0520 (10 and 20 mg/kg). The compound was injected intraperitoneally 30 min before LPS treatment. The mice were monitored for 1 hr post LPS treatment. Untreated mice served as controls. Blood from retro-orbital plexus was collected under anesthesia 1 hr post LPS injection. Serum collected was analysed for TNF-α secretion using an ELISA detection kit.

serum TNF-α [4] = assay: LPS induced TNF-α release in Balb/c mice, treatment post LPS; format: in vivo
Description: as §2
Our results have more significance from the post LPS treatment of RSCL-0520. Here we have stimulated the inflammation process in mice with an injection of LPS (225 μg) intraperitoneally and 30 min post LPS, we have challenged the ability of RSCL-0520 at two different doses (10 mg/kg, 20 mg/kg) to inhibit the TNF-α secretion.

T1 sequence (O00206 24-839): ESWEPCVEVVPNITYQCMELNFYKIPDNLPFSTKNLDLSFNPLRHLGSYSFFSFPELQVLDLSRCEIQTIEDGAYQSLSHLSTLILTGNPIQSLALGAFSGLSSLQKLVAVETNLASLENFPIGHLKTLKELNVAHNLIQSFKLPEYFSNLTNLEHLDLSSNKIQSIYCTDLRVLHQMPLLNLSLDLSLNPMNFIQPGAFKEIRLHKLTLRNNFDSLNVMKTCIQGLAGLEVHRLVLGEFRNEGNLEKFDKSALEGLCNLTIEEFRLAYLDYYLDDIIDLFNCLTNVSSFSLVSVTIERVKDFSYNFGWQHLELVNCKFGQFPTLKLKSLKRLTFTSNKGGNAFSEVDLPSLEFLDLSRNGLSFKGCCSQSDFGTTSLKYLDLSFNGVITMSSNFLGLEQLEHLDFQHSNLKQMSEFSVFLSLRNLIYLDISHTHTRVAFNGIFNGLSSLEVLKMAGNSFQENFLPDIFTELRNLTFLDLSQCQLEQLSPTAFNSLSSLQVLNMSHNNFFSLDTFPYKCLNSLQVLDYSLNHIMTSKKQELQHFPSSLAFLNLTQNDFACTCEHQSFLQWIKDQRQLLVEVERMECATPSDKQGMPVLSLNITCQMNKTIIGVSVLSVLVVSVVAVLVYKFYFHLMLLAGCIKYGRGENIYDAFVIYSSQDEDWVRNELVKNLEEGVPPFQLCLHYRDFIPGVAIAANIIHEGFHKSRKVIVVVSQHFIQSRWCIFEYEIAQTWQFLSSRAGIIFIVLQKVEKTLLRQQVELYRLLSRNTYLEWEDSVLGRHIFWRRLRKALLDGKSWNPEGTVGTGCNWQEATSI
T1 sequence (Q9Y6Y9 17-160 partner limits assumed): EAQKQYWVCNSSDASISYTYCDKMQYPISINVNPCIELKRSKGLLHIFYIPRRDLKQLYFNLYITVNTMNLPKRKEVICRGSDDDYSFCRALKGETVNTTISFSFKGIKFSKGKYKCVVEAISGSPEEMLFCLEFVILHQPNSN

Row | SMILES | inhibition at 1 µM (TNF; Cells + 1 μM + LPS) | inhibition at 10 µM (TNF; Cells + 10 μM + LPS) | inhibition at 50 µM (TNF; Cells + 50 μM + LPS) | inhibition at 100 µM (TNF; Cells + 100 μM + LPS) | further results
1 | COc1c(O)cc2ccc3cc(O)ccc3c2c1OC [RSCL-0518, 2,7-dihydroxy-3,4-dimethoxyphenanthrene] | 0% | 0% | 39% | 87% | –
2 | COc1cc(OCc2ccccc2)c2c(ccc3c(OCc4ccccc4)c(OC)ccc32)c1 [RSCL-0638, 1,5-dibenzyloxy-2,7-dimethoxy phenanthrene] | 0% | 0% | 0% | 0% | –
3 | COc1cc2c(c(OC(C)=O)c1)-c1ccc(OC)c(OC(C)=O)c1CC2 [RSCL-0521, 1,5-diacetoxy-2,7-dimethoxy-9,10-dihydrophenanthrene] | 0% | 13% | 76% | 92% | –
4 | COc1c(OC(C)=O)cc2ccc3cc(OC(C)=O)ccc3c2c1OC [RSCL-0519, 2,7-diacetoxy-3,4-dimethoxyphenanthrene] | 0% | 0% | 21% | 72% | –
5 | COc1ccc2c(ccc3cc(OC)c(OC)c(OC)c32)c1 [RSCL-0575, 2,3,4,7-tetramethoxyphenanthrene] | 26% | 33% | 32% | 49% | –
6 | COc1cc(O)c2c(c1)CCc1c-2ccc(OC)c1O [RSCL-0520, 1,5-dihydroxy-2,7-dimethoxy-9,10-dihydrophenanthrene] | 4% | 40% | 95% | 100% | decrease of TNF-α production (TLR4 [1]): ~50%; decrease of TNF-α production (TLR4 [2]): ~50%; viability of the cells (MTT) (THP-1 cells): not affected; reduction of serum TNF production (serum TNF-α [3]; 10 mg/kg i.p. 30 min before LPS 225 μg i.p.): ~66%; reduction of serum TNF production (serum TNF-α [3]; 20 mg/kg i.p. 30 min before LPS 225 μg i.p.): ~70%; inhibition of TNF secretion (serum TNF-α [4]; 10 mg/kg given 30 min post LPS 225 μg i.p.): ~38%; inhibition of TNF secretion (serum TNF-α [4]; 20 mg/kg given 30 min post LPS 225 μg i.p.): 49%
7 | COc1c(OC(=O)/C=C/c2ccc(OC(C)=O)c(OC(C)=O)c2)cc2ccc3cc(OC(=O)/C=C/c4ccc(OC(C)=O)c(OC(C)=O)c4)ccc3c2c1OC [RSCL-0522, 3,4-dimethoxyphenanthrene-2,7-bis-[(2E)-3-[3,4-bis(acetyloxy)phenyl] acrylate] | – | – | – | – | % TNF Inhibition (TNF; Cells + 1 μM + LPS): 0%; % TNF Inhibition (TNF; Cells + 10 μM + LPS): 12%; % TNF Inhibition (TNF; Cells + 50 μM + LPS): 37%; % TNF Inhibition (TNF; Cells + 100 μM + LPS): 34%
